One assay deals with T1, Thromboxane A2 receptor (Homo sapiens, UniProt P21731).
T1 sequence (P21731 whole entry): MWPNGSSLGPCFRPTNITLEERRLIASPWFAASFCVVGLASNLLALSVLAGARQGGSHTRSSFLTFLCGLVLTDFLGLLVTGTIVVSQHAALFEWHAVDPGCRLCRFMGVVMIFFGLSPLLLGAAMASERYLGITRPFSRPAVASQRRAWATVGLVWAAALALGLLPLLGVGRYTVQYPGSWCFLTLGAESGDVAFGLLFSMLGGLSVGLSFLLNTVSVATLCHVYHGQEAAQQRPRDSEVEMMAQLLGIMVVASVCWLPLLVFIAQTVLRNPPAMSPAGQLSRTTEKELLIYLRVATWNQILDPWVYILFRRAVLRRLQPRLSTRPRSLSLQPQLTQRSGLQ

For assay [1], the target named is T2, Alpha-2A adrenergic receptor (Homo sapiens, UniProt P08913).
T2 sequence (P08913 whole entry): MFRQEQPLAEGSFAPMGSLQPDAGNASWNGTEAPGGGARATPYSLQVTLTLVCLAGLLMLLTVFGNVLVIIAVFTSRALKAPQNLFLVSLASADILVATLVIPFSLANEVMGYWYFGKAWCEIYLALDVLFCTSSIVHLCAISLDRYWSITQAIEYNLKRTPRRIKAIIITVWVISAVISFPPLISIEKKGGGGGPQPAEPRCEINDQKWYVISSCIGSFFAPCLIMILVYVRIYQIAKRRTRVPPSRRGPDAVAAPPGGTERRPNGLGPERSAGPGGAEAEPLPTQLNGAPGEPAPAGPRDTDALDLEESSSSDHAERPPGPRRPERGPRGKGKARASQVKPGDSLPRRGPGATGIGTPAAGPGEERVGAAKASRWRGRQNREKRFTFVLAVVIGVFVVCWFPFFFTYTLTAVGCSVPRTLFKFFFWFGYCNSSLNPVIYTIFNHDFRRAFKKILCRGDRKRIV
The assay is classed as functional, cell-based.

Assay [2] concerns the target T3, 5-hydroxytryptamine receptor 1A (Homo sapiens, UniProt P08908).
T3 sequence (P08908 whole entry): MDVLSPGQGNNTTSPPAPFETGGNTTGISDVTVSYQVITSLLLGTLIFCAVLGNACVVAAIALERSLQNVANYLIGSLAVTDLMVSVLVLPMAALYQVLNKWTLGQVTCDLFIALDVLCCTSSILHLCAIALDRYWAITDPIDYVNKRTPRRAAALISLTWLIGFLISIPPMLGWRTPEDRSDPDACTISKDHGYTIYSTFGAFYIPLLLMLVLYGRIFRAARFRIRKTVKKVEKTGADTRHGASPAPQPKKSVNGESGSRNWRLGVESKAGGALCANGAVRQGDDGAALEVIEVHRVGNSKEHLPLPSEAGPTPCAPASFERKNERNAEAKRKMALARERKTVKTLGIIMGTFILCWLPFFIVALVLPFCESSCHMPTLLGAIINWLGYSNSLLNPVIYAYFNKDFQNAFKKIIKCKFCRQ
The assay is classed as functional, cell-based.

A further assay concerns the target Vasopressin V2 receptor (Homo sapiens, UniProt P30518).
Assay [3] addresses Beta-1 adrenergic receptor (Homo sapiens, UniProt P08588). It counts as functional.
Assay [4] deals with Growth hormone secretagogue receptor type 1 (Homo sapiens, UniProt Q92847).
A further assay deals with Histamine H3 receptor (Homo sapiens, UniProt Q9Y5N1).
Assay [5] concerns the target T4, Prostaglandin G/H synthase 1 (Rattus norvegicus, UniProt Q63921).
T4 sequence (Q63921 whole entry): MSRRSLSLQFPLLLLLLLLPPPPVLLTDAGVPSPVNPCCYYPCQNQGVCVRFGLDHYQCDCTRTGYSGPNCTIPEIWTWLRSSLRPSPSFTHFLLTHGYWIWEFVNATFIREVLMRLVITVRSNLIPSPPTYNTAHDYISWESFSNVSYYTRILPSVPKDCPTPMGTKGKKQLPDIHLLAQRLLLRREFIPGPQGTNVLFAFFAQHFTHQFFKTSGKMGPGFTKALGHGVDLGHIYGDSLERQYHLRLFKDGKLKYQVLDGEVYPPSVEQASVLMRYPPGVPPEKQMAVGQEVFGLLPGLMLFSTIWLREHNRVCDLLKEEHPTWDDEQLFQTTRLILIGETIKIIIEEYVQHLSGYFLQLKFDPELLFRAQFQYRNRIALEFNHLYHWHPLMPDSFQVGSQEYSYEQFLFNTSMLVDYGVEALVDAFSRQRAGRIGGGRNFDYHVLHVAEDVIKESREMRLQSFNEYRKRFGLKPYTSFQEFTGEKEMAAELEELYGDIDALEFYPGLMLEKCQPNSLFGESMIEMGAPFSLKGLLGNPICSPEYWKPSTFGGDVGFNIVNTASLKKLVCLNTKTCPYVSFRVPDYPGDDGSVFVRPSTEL
The assay is classed as functional.

Assay [6] has as its target T5, 5-hydroxytryptamine receptor 2A (Homo sapiens, UniProt P28223). The assay is classed as functional, cell-based.
Assay [7] addresses T5, 5-hydroxytryptamine receptor 2A. The assay is classed as functional, cell-based. This is another data set of the same source.
Assay [8] has as its target T6, Muscarinic acetylcholine receptor M2 (Homo sapiens, UniProt P08172).
T6 sequence (P08172 whole entry): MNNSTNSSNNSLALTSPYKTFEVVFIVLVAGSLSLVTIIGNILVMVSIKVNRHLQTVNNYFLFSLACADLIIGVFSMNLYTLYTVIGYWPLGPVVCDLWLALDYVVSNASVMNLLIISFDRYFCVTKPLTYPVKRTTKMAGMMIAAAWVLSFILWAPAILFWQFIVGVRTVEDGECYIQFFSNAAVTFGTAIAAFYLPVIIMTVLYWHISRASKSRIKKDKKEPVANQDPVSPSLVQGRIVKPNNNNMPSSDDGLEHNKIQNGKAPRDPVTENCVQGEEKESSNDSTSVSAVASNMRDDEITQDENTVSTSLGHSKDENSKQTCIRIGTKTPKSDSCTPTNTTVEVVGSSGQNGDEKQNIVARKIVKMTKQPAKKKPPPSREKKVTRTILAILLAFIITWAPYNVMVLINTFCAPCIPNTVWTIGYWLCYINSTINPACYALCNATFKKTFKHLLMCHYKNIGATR
The assay is classed as functional, cell-based.

In assay [9] the target is cGMP-inhibited 3',5'-cyclic phosphodiesterase 3A (Homo sapiens, UniProt Q14432). The assay is classed as functional.

Some results are limits rather than exact numbers.
Also: assay procedure not described here.

Beta-1 adrenergic receptor, sequence (P08588 whole entry): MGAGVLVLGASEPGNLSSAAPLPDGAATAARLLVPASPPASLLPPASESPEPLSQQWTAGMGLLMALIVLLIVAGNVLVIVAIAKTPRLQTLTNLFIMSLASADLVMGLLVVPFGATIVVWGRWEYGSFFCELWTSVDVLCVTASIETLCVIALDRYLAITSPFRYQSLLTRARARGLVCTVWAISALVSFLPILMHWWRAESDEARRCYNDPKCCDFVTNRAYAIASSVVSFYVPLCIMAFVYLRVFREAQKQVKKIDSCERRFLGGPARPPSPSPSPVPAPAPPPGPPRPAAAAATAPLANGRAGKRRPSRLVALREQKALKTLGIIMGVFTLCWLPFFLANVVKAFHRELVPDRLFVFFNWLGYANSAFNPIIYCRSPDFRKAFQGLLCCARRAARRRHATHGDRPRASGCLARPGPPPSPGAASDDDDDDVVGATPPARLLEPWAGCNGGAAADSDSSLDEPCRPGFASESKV
Growth hormone secretagogue receptor type 1, sequence (Q92847 whole entry): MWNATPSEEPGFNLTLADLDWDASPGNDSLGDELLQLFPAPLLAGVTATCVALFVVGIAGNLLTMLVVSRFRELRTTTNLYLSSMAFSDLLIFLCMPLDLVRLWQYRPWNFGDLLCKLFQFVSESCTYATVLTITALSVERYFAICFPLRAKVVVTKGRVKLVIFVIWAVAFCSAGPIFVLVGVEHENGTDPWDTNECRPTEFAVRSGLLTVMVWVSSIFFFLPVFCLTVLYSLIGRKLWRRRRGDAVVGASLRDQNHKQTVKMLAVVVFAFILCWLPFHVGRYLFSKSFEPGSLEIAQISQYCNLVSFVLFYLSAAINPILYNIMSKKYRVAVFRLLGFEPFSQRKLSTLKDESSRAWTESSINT
T5 sequence (P28223 whole entry): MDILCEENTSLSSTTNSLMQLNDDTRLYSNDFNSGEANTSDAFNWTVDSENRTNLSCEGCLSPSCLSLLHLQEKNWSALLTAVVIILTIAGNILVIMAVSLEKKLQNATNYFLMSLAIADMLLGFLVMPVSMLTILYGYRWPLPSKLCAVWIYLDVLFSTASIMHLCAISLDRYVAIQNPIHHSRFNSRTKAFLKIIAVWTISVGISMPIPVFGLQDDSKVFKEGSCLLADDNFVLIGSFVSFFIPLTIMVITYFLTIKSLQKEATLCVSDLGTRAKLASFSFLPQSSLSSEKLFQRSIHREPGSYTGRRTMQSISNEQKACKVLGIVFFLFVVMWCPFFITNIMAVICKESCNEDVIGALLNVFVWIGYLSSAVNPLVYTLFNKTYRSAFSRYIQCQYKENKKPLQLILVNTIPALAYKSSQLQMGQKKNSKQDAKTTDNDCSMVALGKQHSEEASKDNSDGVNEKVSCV
cGMP-inhibited 3',5'-cyclic phosphodiesterase 3A, sequence (Q14432 whole entry): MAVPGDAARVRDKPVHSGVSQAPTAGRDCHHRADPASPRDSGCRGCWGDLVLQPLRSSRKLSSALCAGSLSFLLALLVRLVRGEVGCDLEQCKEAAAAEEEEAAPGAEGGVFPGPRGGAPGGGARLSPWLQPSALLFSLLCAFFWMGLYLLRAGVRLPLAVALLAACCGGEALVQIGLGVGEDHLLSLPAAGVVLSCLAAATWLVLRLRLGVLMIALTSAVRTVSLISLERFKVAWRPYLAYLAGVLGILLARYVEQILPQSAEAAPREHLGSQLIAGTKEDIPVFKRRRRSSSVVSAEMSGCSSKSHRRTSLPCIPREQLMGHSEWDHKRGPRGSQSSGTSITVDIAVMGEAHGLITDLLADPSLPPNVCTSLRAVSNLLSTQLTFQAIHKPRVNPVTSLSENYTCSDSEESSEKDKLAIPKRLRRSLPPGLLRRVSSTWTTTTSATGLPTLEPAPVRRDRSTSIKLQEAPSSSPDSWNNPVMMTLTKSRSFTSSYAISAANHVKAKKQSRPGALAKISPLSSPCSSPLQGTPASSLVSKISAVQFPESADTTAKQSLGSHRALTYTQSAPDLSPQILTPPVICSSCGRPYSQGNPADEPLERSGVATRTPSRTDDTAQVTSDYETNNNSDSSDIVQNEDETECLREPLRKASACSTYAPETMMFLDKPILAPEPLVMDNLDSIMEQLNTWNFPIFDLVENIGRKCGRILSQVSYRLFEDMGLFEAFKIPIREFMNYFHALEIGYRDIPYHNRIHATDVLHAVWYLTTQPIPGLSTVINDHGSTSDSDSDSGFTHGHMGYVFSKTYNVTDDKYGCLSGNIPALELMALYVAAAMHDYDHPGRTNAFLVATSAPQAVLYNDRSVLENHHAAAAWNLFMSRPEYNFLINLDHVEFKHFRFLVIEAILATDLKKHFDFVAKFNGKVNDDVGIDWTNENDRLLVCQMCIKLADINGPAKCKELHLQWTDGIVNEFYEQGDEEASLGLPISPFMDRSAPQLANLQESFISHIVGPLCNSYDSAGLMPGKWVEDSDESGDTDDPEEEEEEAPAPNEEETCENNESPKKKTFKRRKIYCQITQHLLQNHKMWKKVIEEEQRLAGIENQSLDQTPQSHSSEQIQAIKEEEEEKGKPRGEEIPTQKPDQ
Vasopressin V2 receptor, sequence (P30518 whole entry): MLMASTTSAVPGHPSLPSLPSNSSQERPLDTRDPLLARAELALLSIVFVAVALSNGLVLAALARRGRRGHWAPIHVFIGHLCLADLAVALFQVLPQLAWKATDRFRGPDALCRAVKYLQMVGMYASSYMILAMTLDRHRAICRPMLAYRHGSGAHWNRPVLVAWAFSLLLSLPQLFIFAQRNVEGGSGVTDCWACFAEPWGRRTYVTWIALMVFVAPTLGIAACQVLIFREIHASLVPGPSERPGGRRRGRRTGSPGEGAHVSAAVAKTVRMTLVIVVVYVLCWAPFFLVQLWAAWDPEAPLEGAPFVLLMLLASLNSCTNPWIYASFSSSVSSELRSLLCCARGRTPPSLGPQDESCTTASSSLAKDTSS
Histamine H3 receptor, sequence (Q9Y5N1 whole entry): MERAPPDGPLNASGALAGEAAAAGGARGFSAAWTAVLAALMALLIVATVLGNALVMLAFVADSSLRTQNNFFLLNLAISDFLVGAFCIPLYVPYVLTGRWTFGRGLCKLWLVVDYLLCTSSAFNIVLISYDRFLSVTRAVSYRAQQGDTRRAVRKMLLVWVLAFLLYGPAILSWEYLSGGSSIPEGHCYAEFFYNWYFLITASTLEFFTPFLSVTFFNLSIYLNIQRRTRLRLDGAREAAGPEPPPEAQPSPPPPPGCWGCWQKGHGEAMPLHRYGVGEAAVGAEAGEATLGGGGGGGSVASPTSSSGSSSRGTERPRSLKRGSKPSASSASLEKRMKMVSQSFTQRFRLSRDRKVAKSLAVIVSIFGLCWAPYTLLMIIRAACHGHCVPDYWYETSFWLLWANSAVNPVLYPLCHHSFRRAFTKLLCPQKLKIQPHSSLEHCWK

Broadly, the AC50 is the concentration giving half of the maximal activity seen. Low readings indicate activity at low concentration, high ones activity only at high concentration. Turning to `NC(=O)CCC/N=C(\c1ccc(Cl)cc1)c1cc(F)ccc1O` [PROGABIDE], the AC50 (at Thromboxane A2 receptor; in [1]; in assay [2]; at Vasopressin V2 receptor; in assay [3]; in [4]) was > 10 µM throughout. Further, the AC50 at Histamine H3 receptor was > 10 µM; in assay [5], > 10 µM; in assay [6], > 10 µM; in assay [7], > 10 µM; in [8] it was > 10 µM; in [9] it was > 30 µM.
With `CCCOC(C(=O)OC1CCN(C)CC1)(c1ccccc1)c1ccccc1` [PROPIVERINE], the AC50 (at Thromboxane A2 receptor; in assay [1]; in [2]; at Vasopressin V2 receptor; in [3]; in assay [4]) was > 30 µM in each case. Moreover, the AC50 is > 30 µM on Histamine H3 receptor; > 30 µM in assay [5]; 26 µM in assay [6]; > 30 µM in [7]; 3.6 µM in [8]; > 30 µM in assay [9].
In the case of `Cc1ccc2c(-c3ccccc3)nc(=O)n(C(C)C)c2c1` [PROQUAZONE], the AC50 on Thromboxane A2 receptor is 11 µM; in assay [1], 28 µM; in assay [2], > 30 µM; at Vasopressin V2 receptor, > 30 µM; in assay [3] it was > 30 µM; in assay [4], > 30 µM. For the same molecule, the AC50 on Histamine H3 receptor is > 30 µM; in assay [5], 0.2 µM; in assay [6], > 30 µM; in assay [7], > 30 µM; in assay [8], > 30 µM; in assay [9], > 30 µM.
For `CC(NCCc1ccc(O)cc1)C(O)c1ccc(O)cc1` (stereo not drawn) [RITODRINE], the AC50 on Thromboxane A2 receptor is > 30 µM; in assay [1] it was > 30 µM; in assay [2], > 30 µM; at Vasopressin V2 receptor, > 30 µM; in assay [3] it was 17 µM; in [4], > 30 µM. In addition, the AC50 is > 30 µM at Histamine H3 receptor; > 30 µM in assay [5]; > 30 µM in assay [6]; > 30 µM in [7]; > 10 µM in [8]; > 30 µM in assay [9].
On to `CN1CCN(c2c(F)cc3c(=O)c(C(=O)O)cn4c3c2SCC4)CC1` [RUFLOXACIN], for which the AC50 (on Thromboxane A2 receptor; in [1]; in [2]; at Vasopressin V2 receptor; in [3]; in assay [4]) was > 30 µM in each case. The half-maximal activity concentration (AC50) (on Histamine H3 receptor; in assay [5]; in assay [6]; in assay [7]; in assay [8]; in assay [9]) was > 30 µM in each case.
Consider `COc1c(O[C@@H]2O[C@H](CO)[C@@H](O)[C@H](O)[C@H]2O)cc2c(c1OC)-c1ccc(SC)c(=O)cc1[C@@H](NC(C)=O)CC2` [THIOCOLCHICOSIDE], for which the AC50 (on Thromboxane A2 receptor; in [1]; in assay [2]; on Vasopressin V2 receptor; in assay [3]; in [4]) was > 30 µM each time. Moreover, the AC50 (at Histamine H3 receptor; in assay [5]; in assay [6]; in assay [7]; in assay [8]; in assay [9]) was > 30 µM throughout.
Consider `CN1c2ccccc2C(NCCCCCCC(=O)O)c2ccc(Cl)cc2S1(=O)=O` (stereo not drawn) [TIANEPTINE], for which the concentration at half-maximal activity (AC50) (on Thromboxane A2 receptor; in [1]; in assay [2]; at Vasopressin V2 receptor; in assay [3]; in assay [4]) was > 30 µM throughout. Further, the AC50 (at Histamine H3 receptor; in assay [5]; in assay [6]; in [7]; in assay [8]; in assay [9]) was > 30 µM in each case.
As for `C=CC(N)CCC(=O)O` (stereo not drawn) [VIGABATRIN], the AC50 (on Thromboxane A2 receptor; in assay [1]; in assay [2]; on Vasopressin V2 receptor; in assay [3]; in assay [4]) was > 10 µM throughout. In addition, the AC50 at Histamine H3 receptor is > 10 µM; in assay [5], > 10 µM; in assay [6], > 10 µM; in [7] it was > 10 µM; in assay [8], > 10 µM; in [9] it was > 30 µM.
Turning to `N#C[C@@H]1CCCN1C(=O)CNC12CC3CC(CC(O)(C3)C1)C2` [VILDAGLIPTIN], the AC50 at Thromboxane A2 receptor was > 30 µM; in assay [1], > 30 µM; in [2] it was > 30 µM; on Vasopressin V2 receptor it was > 30 µM; in [3], > 10 µM; in [4] it was > 30 µM. The AC50 was > 10 µM on Histamine H3 receptor; > 30 µM in [5]; > 30 µM in assay [6]; > 30 µM in [7]; > 30 µM in assay [8]; > 30 µM in [9].
